Like-named read-outs stand apart in the source and are kept apart here.
Key:
[1] = for logp [c]: pH 7.8; for logp [b]: pH 2.7; for logp [a]: pH 2.3
[2] = system: Production of Fumonisin FB1 by Fusarium Proliferatum; test: Production of fumonisin FB1 by Fusarium proliferatum; assay type: cell-based; conditions: FB1 concentration by HPLC-MS/MS after 6 days at 20° C.
[3] = system: Fusarium proliferatum; test: Growth of Fusarium proliferatum (OD620) in the fumonisin test; assay type: cell-based; conditions: OD620 at the beginning and after 6 days
[4] = logP determination by HPLC on reversed-phase columns (EEC directive 79/831 Annex V.A8); conditions: for logp [a] / logp [b]: acidic range; for logp [a]: pH 2.3, 0.1% aqueous phosphoric acid and acetonitrile; for logp [b] / logp [c]: LC-MS; for logp [b]: pH 2.7, 0.1% aqueous formic acid and acetonitrile; for logp [c]: neutral range, pH 7.8, 0.001 molar aqueous ammonium bicarbonate and acetonitrile
[5] = physchem; conditions: pH 2.3
[6] = system: Gibberella zeae; conditions: in vivo

**Q.** For C=CCNC(=O)c1cc(Nc2ncc(Cl)c(NC3CC3)n2)cs1 [Example 21], which “logp [c]” value [1] is on record?
**A.** 2.28[c]

**Q.** For CN(CC1CC1)C(=O)c1cc(Nc2ncc(Cl)c(NC3CC3)n2)cs1 [Example 38], which “logp [b]” value [1] is on record?
**A.** 2.08[b]

**Q.** What about the “logp [c]” value [1] of the same compound?
**A.** 2.86[c];

**Q.** For CS(=O)(=O)c1ccc(Nc2ncc(Cl)c(NC3CC3)n2)s1 [Example 33], which “logp [b]” value [1] is on record?
**A.** 1.97[b]

**Q.** What about the “logp [c]” value [1] of the same compound?
**A.** 2.02[c];

**Q.** What does the source list for S=C(c1cc(Nc2ncc(Cl)c(NC3CC3)n2)cs1)N1CCCC1 [Example 39]?
**A.** logp [b] [1]: 2.31[b]; logp [c] [1]: 3.23[c];

**Q.** For N#Cc1csc(Nc2ncc(Cl)c(NC3CC3)n2)c1 [Example 12], which “logp [a]” value [1] is on record?
**A.** 2.55[a]

**Q.** For CSc1ccc(Nc2ncc(Br)c(NC3CC3)n2)s1 [Example 35], which “logp [b]” value [1] is on record?
**A.** 3.02[b]

**Q.** What about the “logp [c]” value [1] of the same compound?
**A.** 3.53[c];

**Q.** With CC(=O)c1cc(Nc2ncc(Cl)c(NC3CC3)n2)cs1 [Example 13] as the compound, how does the “logp [a]” value [1] read?
**A.** 1.44[a]

**Q.** What does the source list for CC(C)Nc1nc(Nc2ccsc2)ncc1Cl [Example 27]?
**A.** logp [b] [1]: 1.66[b]; logp [c] [1]: 3.28[c];

**Q.** For Clc1cnc(Nc2ccsc2)nc1NC1CC1 [Example 1], which “logp [b]” value [1] is on record?
**A.** 1.63[b]

**Q.** Which results are given for CSc1ccc(Nc2ncc(Cl)c(NC3CC3)n2)s1 [Example 34]?
**A.** logp [b] [1]: 2.84[b]; logp [c] [1]: 3.36[c];

**Q.** Which “logp [b]” value [1] does the source give for Cc1ccc(Nc2ncc(Br)c(NC3CC3)n2)s1 [Example 44] here?
**A.** 2.27[b]

**Q.** And the “logp [c]” value [1]?
**A.** 3.35[c];

**Q.** Which “pI50 Fum” value [2] does the source give for COC(=O)c1cc(Nc2ncc(Cl)c(NC3CC3)n2)cs1 [Example 5, 5-Chloro-N^4-cyclopropyl-N^2-2-methoxycarbonylthiophen-4-yl-2,4-diamine] here?
**A.** 5.3

**Q.** What about the pI50 growth [3] of the same compound?
**A.** 4.4

**Q.** And the “logp [a]” value [4]?
**A.** 1.68[a]

**Q.** And the “logP (pH 2.3)” value [4]?
**A.** 1.68

**Q.** For CC(=O)c1ccc(N)s1 [1-(5-Amino-2-thienyl)ethanone], which chromatographic logP [5] is on record?
**A.** 0.42

**Q.** For Cc1ccc(Nc2ncc(C(F)(F)F)c(NC3CC3)n2)s1 [Example 36], which “logp [b]” value [1] is on record?
**A.** 3.22[b]

**Q.** And the “logp [c]” value [1]?
**A.** 3.56[c];

**Q.** Which chromatographic logP [5] does the source give for Cc1ccc(NC(=O)OC(C)(C)C)s1 [2-(N-tert-Butoxycarbonylamino)-5-methylthiophene] here?
**A.** 2.89

**Q.** With CC1CC1Nc1nc(Nc2ccsc2)ncc1Cl (mixture of isomers) [Example 17] as the compound, how does the “logp [a]” value [1] read?
**A.** 1.97[a]

**Q.** For Cc1ccc(Nc2ncc(Cl)c(NC3CC3)n2)s1 [Example 26, 5-Chloro-N^4-cyclopropyl-N^2-2-methylthiophen-5-yl-2,4-diamine], which “logp [b]” value [4] is on record?
**A.** 2.09[b]

**Q.** What about the “logp [c]” value [4] of the same compound?
**A.** 3.20[c];

**Q.** What about the “logP (pH 2.3)” value [4] of the same compound?
**A.** 2.09

**Q.** Which “logp [b]” value [1] does the source give for Clc1cc(Nc2ncc(Cl)c(NC3CC3)n2)cs1 [Example 41] here?
**A.** 2.63[b]

**Q.** Which chromatographic logP [5] does the source give for O=c1[nH]c(Nc2ccsc2)ncc1Cl [IX-1, 2-(Thiophen-3-ylamino)-5-chloropyrimidin-4(3H)-one] here?
**A.** 1.38

**Q.** Which “logp [b]” value [1] does the source give for Clc1cnc(Nc2ccsc2)nc1NCC1CC1 [Example 32] here?
**A.** 2.33[b]

**Q.** And the “logp [c]” value [1]?
**A.** 3.31[c];

**Q.** What does the source list for C=CCN(C)C(=O)c1cc(Nc2ncc(Cl)c(NC3CC3)n2)cs1 [Example 22]?
**A.** logp [b] [1]: 1.89[b]; logp [c] [1]: 2.65[c];

**Q.** With CC(C)Nc1nc(Nc2ccsc2)ncc1Br [Example 28] as the compound, how does the “logp [b]” value [1] read?
**A.** 1.85[b]

**Q.** And the “logp [c]” value [1]?
**A.** 3.43[c];

**Q.** With Clc1ccc(Nc2ncc(Cl)c(NC3CC3)n2)s1 [Example 43] as the compound, how does the “logp [c]” value [1] read?
**A.** 3.54[c];

**Q.** With COCCNC(=O)c1cc(Nc2ncc(Cl)c(NC3CC3)n2)cs1 [Example 23] as the compound, how does the “logp [b]” value [1] read?
**A.** 1.38[b]

**Q.** What about the “logp [c]” value [1] of the same compound?
**A.** 2.01[c];

**Q.** Which “logp [b]” value [1] does the source give for FC(F)CNc1nc(Nc2ccsc2)ncc1Cl [Example 31] here?
**A.** 1.88[b]

**Q.** What about the “logp [c]” value [1] of the same compound?
**A.** 2.72[c];

**Q.** For Clc1cnc(Nc2ccsc2)nc1Cl [Example X-1, 4,5-Dichloro-N-(3-thienyl)pyrimidin-2-amine], which chromatographic logP [5] is on record?
**A.** 3.55

**Q.** With O=C(c1cc(Nc2ncc(Cl)c(NC3CC3)n2)cs1)N1CCCC1 [Example 6, 5-Chloro-N^4-cyclopropyl-N^2-2-pyrrolidin-1-ylcarbonylthiophen-4-yl-2,4-diamine] as the compound, how does the “pI50 Fum” value [2] read?
**A.** 5.9

**Q.** What about the pI50 growth [3] of the same compound?
**A.** 5.6

**Q.** What about the “logp [a]” value [4] of the same compound?
**A.** 1.42[a]

**Q.** What about the “logP (pH 2.3)” value [4] of the same compound?
**A.** 1.40

**Q.** Which chromatographic logP [5] does the source give for CC(=O)c1ccc(Nc2ncc(Cl)c(NC3CC3)n2)s1 [Example 10, N^4-Cyclopropyl-N^2-2-acetylthiophen-5-yl-5-(chloro)pyrimidine-2,4-diamine] here?
**A.** 1.87

**Q.** Which “pI50 Fum” value [2] does the source give for CCN(CC)C(=O)c1cc(Nc2ncc(Cl)c(NC3CC3)n2)cs1 [Example 9] here?
**A.** 6.0

**Q.** And the pI50 growth [3]?
**A.** 5.5

**Q.** And the “logp [a]” value [1]?
**A.** 1.62[a]

**Q.** For O=C(O)c1cc(Nc2ncc(Cl)c(NC3CC3)n2)cs1 [Example 37, 5-Chloro-N^4-cyclopropyl-N^2-2-hydroxycarbonylthiophen-4-yl-2,4-diamine], which “logp [b]” value [4] is on record?
**A.** 1.30[b]

**Q.** And the “logp [c]” value [4]?
**A.** 0.74[c];

**Q.** What about the “logP (pH 2.3)” value [4] of the same compound?
**A.** 1.30

**Q.** With Brc1cnc(Nc2ccsc2)nc1NC1CCC1 [Example 3] as the compound, how does the “logp [b]” value [1] read?
**A.** 2.12[b]

**Q.** Which “logp [a]” value [1] does the source give for O=C(c1cc(Nc2ncc(Cl)c(NC3CC3)n2)cs1)N1CCCCC1 [Example 7] here?
**A.** 1.68[a]

**Q.** Which “logp [a]” value [1] does the source give for N#Cc1cc(Nc2ncc(Cl)c(NC3CC3)n2)cs1 [Example 14] here?
**A.** 2.23[a]

**Q.** What does the source list for FC(F)CNc1nc(Nc2ccsc2)ncc1Br [Example 30]?
**A.** logp [b] [1]: 1.99[b]; logp [c] [1]: 2.83[c];

**Q.** With Brc1cnc(Nc2ccsc2)nc1NC1CC1 [Example 4] as the compound, how does the “logp [b]” value [1] read?
**A.** 1.71[b]

**Q.** With O=C(c1cc(Nc2ncc(Cl)c(NC3CC3)n2)cs1)N1CCOCC1 [Example 19] as the compound, how does the “logp [b]” value [1] read?
**A.** 1.45[b]

**Q.** What about the “logp [c]” value [1] of the same compound?
**A.** 2.09[c];

**Q.** For FC(F)(F)CNc1nc(Nc2ccsc2)ncc1Br [Example 29], which “logp [c]” value [1] is on record?
**A.** 3.50[c]

**Q.** Which results are given for COCC(C)NC(=O)c1cc(Nc2ncc(Cl)c(NC3CC3)n2)cs1 (stereo not shown) [Example 24]?
**A.** logp [b] [1]: 1.58[b]; logp [c] [1]: 2.22 [c];

**Q.** What does the source list for FC(F)(F)c1cnc(Nc2ccsc2)nc1NC1CC1 [Example 2]?
**A.** efficacy [6]: ≥ 80%; logp [b] [1]: 2.69[b]

**Q.** For CCN(CC)C(=S)c1cc(Nc2ncc(Cl)c(NC3CC3)n2)cs1 [Example 40], which “logp [b]” value [1] is on record?
**A.** 2.55[b]

**Q.** What about the “logp [c]” value [1] of the same compound?
**A.** 3.51[c];

**Q.** For CC(C)N(C)C(=O)c1cc(Nc2ncc(Cl)c(NC3CC3)n2)cs1 [Example 8], which “logp [a]” value [1] is on record?
**A.** 1.6[a]

**Q.** With CC(C)(C)NC(=O)c1cc(Nc2ncc(Cl)c(NC3CC3)n2)cs1 [Example 20] as the compound, how does the “logp [b]” value [1] read?
**A.** 2.11[b]

**Q.** For Clc1cnc(Nc2ccsc2)nc1NC1CCC1 [Example 18], which “logp [b]” value [1] is on record?
**A.** 1.96[b]

**Q.** What about the “logp [c]” value [1] of the same compound?
**A.** 3.46[c];

**Q.** With O=C(NO)c1cc(Nc2ncc(Cl)c(NC3CC3)n2)cs1 [Example 25] as the compound, how does the “logp [b]” value [1] read?
**A.** 2.1[b]

**Q.** What about the “logp [c]” value [1] of the same compound?
**A.** 2.96[c];
